Results: patent US20050208496A1, “Methods of testing for bronchial asthma or chronic obstructive pulmonary disease” (Genox Research, Inc., priority 2002, published 2005)
Like-named read-outs stand apart in the source and are kept apart here.

Test system: respiratory epithelial cells
[1] = HG-U95E, lot 1, Day 3, AI (head as in Table 18)
[2] = HG-U95E, lot 1, Day 7, AI (no head printed, inferred)
[3] = HG-U95E, lot 2, Day 3, AI (no head printed, inferred)

Substance: IL-13: human IL-13 (Peprotech, Inc.) added to the medium at 50 ng/mL to stimulate respiratory epithelial cells
- CRYM (38285_at) expression change upon IL-13 stimulation (HG-U95A, lot 2, Day 7, AI): −3.5
- CSPG2 (38112_g_at) expression change upon IL-13 stimulation (HG-U95A, lot 2, Day 7, AI): −2.5
- DHCR24 (36658_at) expression change upon IL-13 stimulation (HG-U95A, lot 2, Day 7, AI): −4.3
- DSG3 (33693_at) expression change upon IL-13 stimulation (HG-U95A, lot 2, Day 7, AI): −2.2
- E48 (36284_at) expression change upon IL-13 stimulation (HG-U95A, lot 2, Day 7, AI): −5.6
- EPHX1 (38790_at) expression change upon IL-13 stimulation (HG-U95A, lot 2, Day 7, AI): −5.1
- FACL2 (40082_at) expression change upon IL-13 stimulation (HG-U95A, lot 2, Day 7, AI): −2
- FMO3 (40665_at) expression change upon IL-13 stimulation (HG-U95A, lot 2, Day 7, AI): −4.3
- GLUL (40522_at) expression change upon IL-13 stimulation (HG-U95A, lot 2, Day 7, AI): −4.4
- GPX3 (770_at) expression change upon IL-13 stimulation (HG-U95A, lot 2, Day 7, AI): −2.8
- GSTA4 (40508_at) expression change upon IL-13 stimulation (HG-U95A, lot 2, Day 7, AI): −5.4
- HGNC, keratinocyte transglutaminase gene (35947_at) expression change upon IL-13 stimulation (HG-U95A, lot 2, Day 7, AI): −3.2
- KIAA0878 (32215_1_at) expression change upon IL-13 stimulation (HG-U95A, lot 2, Day 7, AI): −2.7
- KIAA1055 (39400_at) expression change upon IL-13 stimulation (HG-U95A, lot 2, Day 7, AI): −3
- LCE (40943_at) expression change upon IL-13 stimulation (HG-U95A, lot 2, Day 7, AI): −3.7
- LGALS1 (33412_at) expression change upon IL-13 stimulation (HG-U95A, lot 2, Day 7, AI): −6.2
- SCYD1 (823_at) expression change upon IL-13 stimulation (HG-U95A, lot 2, Day 7, AI): −24.6
- SDC1 (38127_at) expression change upon IL-13 stimulation (HG-U95A, lot 2, Day 7, AI): −2.9
- TGFBI (1385_at) expression change upon IL-13 stimulation (HG-U95A, lot 2, Day 7, AI): −4.9
- TNFAIP2 (38631_at) expression change upon IL-13 stimulation (HG-U95A, lot 2, Day 7, AI): −3.7
- AA199856 (72960_s_at) expression change upon IL-13 stimulation (HG-U95E, lot 1, Day 3, AI): 4.3
- AI859144, KIAA1127 (77546_at) expression change upon IL-13 stimulation (HG-U95E, lot 1, Day 3, AI): 4.2
- BAL (69619_at) expression change upon IL-13 stimulation (HG-U95E, lot 1, Day 3, AI): 3.5
- EHF (8S090_at) expression change upon IL-13 stimulation (HG-U95E, lot 1, Day 3, AI): 2.3
- EPSTI1 (90421_at) expression change upon IL-13 stimulation (HG-U95E, lot 1, Day 3, AI): 7.2
- FLJ20989 (91420_at) expression change upon IL-13 stimulation (HG-U95E, lot 1, Day 3, AI): 14.8
- FLJ22833 (67329_at) expression change upon IL-13 stimulation (HG-U95E, lot 1, Day 3, AI): 3.1
- GCNT3 (77751_at) expression change upon IL-13 stimulation (HG-U95E, lot 1, Day 3, AI): 4.9
- MFHAS1 (87816_g_at) expression change upon IL-13 stimulation (HG-U95E, lot 1, Day 3, AI): 3
- RPL4 (80675_at) expression change upon IL-13 stimulation (HG-U95E, lot 1, Day 3, AI): 2.2
- SCYA26 (90189_at) expression change upon IL-13 stimulation (HG-U95E, lot 1, Day 3, AI): 26.3
- H70665 (67357_at) expression change upon IL-13 stimulation [1]: 2.6
- SLC21A12 (87860_s_at) expression change upon IL-13 stimulation [1]: 2.7
- TBLR1 (87125_at) expression change upon IL-13 stimulation [1]: 2.8
- AA199856 (72960_s_at) expression change upon IL-13 stimulation (HG-U95E, lot 1, Day 3, IMM): 5.8
- AI859144, KIAA1127 (77546_at) expression change upon IL-13 stimulation (HG-U95E, lot 1, Day 3, IMM): 6.1
- AW024819 (72867_at) expression change upon IL-13 stimulation (HG-U95E, lot 1, Day 3, IMM): 4.2
- BAL (69619_at) expression change upon IL-13 stimulation (HG-U95E, lot 1, Day 3, IMM): 3.1
- EPSTI1 (90421_at) expression change upon IL-13 stimulation (HG-U95E, lot 1, Day 3, IMM): 9.9
- FLJ20989 (91420_at) expression change upon IL-13 stimulation (HG-U95E, lot 1, Day 3, IMM): 13.5
- GCNT3 (77751_at) expression change upon IL-13 stimulation (HG-U95E, lot 1, Day 3, IMM): 10.2
- RIG-1 (77749_at) expression change upon IL-13 stimulation (HG-U95E, lot 1, Day 3, IMM): 3.9
- SCYA26 (90189_at) expression change upon IL-13 stimulation (HG-U95E, lot 1, Day 3, IMM): 18.1
- EHF (85092_g_at) expression change upon IL-13 stimulation (HG-U95E, lot 1, Day 3, IMM (head as in Table 18)): 2.3
- AA199856 (72960_s_at) expression change upon IL-13 stimulation (HG-U95E, lot 1, Day 7, AI): 3.9
- AA806114 (80826_at) expression change upon IL-13 stimulation (HG-U95E, lot 1, Day 7, AI): 5.3
- AI803648 (89255_at) expression change upon IL-13 stimulation (HG-U95E, lot 1, Day 7, AI): 3.5
- AI859144, KIAA1127 (77546_at) expression change upon IL-13 stimulation (HG-U95E, lot 1, Day 7, AI): 2.6
- AI984061 (89834_at) expression change upon IL-13 stimulation (HG-U95E, lot 1, Day 7, AI): 2.7
- AW024819 (72867_at) expression change upon IL-13 stimulation (HG-U95E, lot 1, Day 7, AI): 2.6
- BCAT1 (72962_at) expression change upon IL-13 stimulation (HG-U95E, lot 1, Day 7, AI): 2.7
- CLDN1 (77660_at) expression change upon IL-13 stimulation (HG-U95E, lot 1, Day 7, AI): 2.6
- EHF (85092_g_at) expression change upon IL-13 stimulation (HG-U95E, lot 1, Day 7, AI): 2.1
- EPPK1 (86507_at) expression change upon IL-13 stimulation (HG-U95E, lot 1, Day 7, AI): 2.6
- FLJ20281 (83376_at) expression change upon IL-13 stimulation (HG-U95E, lot 1, Day 7, AI): 2.1
- FLJ20989 (91420_at) expression change upon IL-13 stimulation (HG-U95E, lot 1, Day 7, AI): 3.4
- FLJ21415 (89902_at) expression change upon IL-13 stimulation (HG-U95E, lot 1, Day 7, AI): 3.4
- FLJ22833 (67329_at) expression change upon IL-13 stimulation (HG-U95E, lot 1, Day 7, AI): 3.6
- GCNT3 (77751_at) expression change upon IL-13 stimulation (HG-U95E, lot 1, Day 7, AI): 2.5
- KIAA1685 (83541_at) expression change upon IL-13 stimulation (HG-U95E, lot 1, Day 7, AI): 2.6
- MASL1 (89651_at) expression change upon IL-13 stimulation (HG-U95E, lot 1, Day 7, AI): 4.3
- MFHAS1 (87816_g_at) expression change upon IL-13 stimulation (HG-U95E, lot 1, Day 7, AI): 3.4
- RIG-1 (77749_at) expression change upon IL-13 stimulation (HG-U95E, lot 1, Day 7, AI): 3.4
- SCYA26 (90189_at) expression change upon IL-13 stimulation (HG-U95E, lot 1, Day 7, AI): 30.4
- vipirin (84893_at) expression change upon IL-13 stimulation (HG-U95E, lot 1, Day 7, AI): 2.7
- NIFK (89320_at) expression change upon IL-13 stimulation [2]: 2.9
- SLC1A5 (34759_at) expression change upon IL-13 stimulation [2]: 2.5
- SLC17A5 (88617_at) expression change upon IL-13 stimulation [2]: 2.7
- SLC21A12 (87860_s_at) expression change upon IL-13 stimulation [2]: 2.7
- rab11-FIP1 (89338_at) expression change upon IL-13 stimulation [2]: 4.4
- AA199856 (72960_s_at) expression change upon IL-13 stimulation (HG-U95E, lot 1, Day 7, IMM): 3.8
- AA806114 (80826_at) expression change upon IL-13 stimulation (HG-U95E, lot 1, Day 7, IMM): 5.3
- AI803648 (89255_at) expression change upon IL-13 stimulation (HG-U95E, lot 1, Day 7, IMM): 7
- BAL (69619_at) expression change upon IL-13 stimulation (HG-U95E, lot 1, Day 7, IMM): 2.2
- BCAT1 (72962_at) expression change upon IL-13 stimulation (HG-U95E, lot 1, Day 7, IMM): 3.4
- EPPK1 (86507_at) expression change upon IL-13 stimulation (HG-U95E, lot 1, Day 7, IMM): 3.6
- EPSTI1 (90421_at) expression change upon IL-13 stimulation (HG-U95E, lot 1, Day 7, IMM): 3.4
- FLJ22833 (67329_at) expression change upon IL-13 stimulation (HG-U95E, lot 1, Day 7, IMM): 3.7
- GCNT3 (77751_at) expression change upon IL-13 stimulation (HG-U95E, lot 1, Day 7, IMM): 3.5
- MFHAS1 (87816_g_at) expression change upon IL-13 stimulation (HG-U95E, lot 1, Day 7, IMM): 3.1
- RIG-1 (77749_at) expression change upon IL-13 stimulation (HG-U95E, lot 1, Day 7, IMM): 5.1
- SCYA26 (90189_at) expression change upon IL-13 stimulation (HG-U95E, lot 1, Day 7, IMM): 35.1
- vipirin (84893_at) expression change upon IL-13 stimulation (HG-U95E, lot 1, Day 7, IMM): 6.6
- AA199856 (72960_s_at) expression change upon IL-13 stimulation (HG-U95E, lot 2, Day 3, AI): 18.8
- AA779704 (68562_at) expression change upon IL-13 stimulation (HG-U95E, lot 2, Day 3, AI): 2.8
- AA806114 (80826_at) expression change upon IL-13 stimulation (HG-U95E, lot 2, Day 3, AI): 7.2
- AI859144, KIAA1127 (77546_at) expression change upon IL-13 stimulation (HG-U95E, lot 2, Day 3, AI): 5.5
- BAL (69619_at) expression change upon IL-13 stimulation (HG-U95E, lot 2, Day 3, AI): 3.1
- BCAT1 (72962_at) expression change upon IL-13 stimulation (HG-U95E, lot 2, Day 3, AI): 10.5
- EHF (8S090_at) expression change upon IL-13 stimulation (HG-U95E, lot 2, Day 3, AI): 3.3
- EHF (85092_g_at) expression change upon IL-13 stimulation (HG-U95E, lot 2, Day 3, AI): 3.3
- EPSTI1 (90421_at) expression change upon IL-13 stimulation (HG-U95E, lot 2, Day 3, AI): 9.4
- FLJ22833 (67329_at) expression change upon IL-13 stimulation (HG-U95E, lot 2, Day 3, AI): 6.1
- MASL1 (89651_at) expression change upon IL-13 stimulation (HG-U95E, lot 2, Day 3, AI): 3.2
- MFHAS1 (87816_g_at) expression change upon IL-13 stimulation (HG-U95E, lot 2, Day 3, AI): 3.5
- OAS2 (90662_at) expression change upon IL-13 stimulation (HG-U95E, lot 2, Day 3, AI): 4.1
- RIG-1 (77749_at) expression change upon IL-13 stimulation (HG-U95E, lot 2, Day 3, AI): 6.4
- RPL4 (80675_at) expression change upon IL-13 stimulation (HG-U95E, lot 2, Day 3, AI): 2.3
- SCYA26 (90189_at) expression change upon IL-13 stimulation (HG-U95E, lot 2, Day 3, AI): 16.7
- vipirin (84893_at) expression change upon IL-13 stimulation (HG-U95E, lot 2, Day 3, AI): 15.4
- H70665 (67357_at) expression change upon IL-13 stimulation [3]: 2.1
- NIFK (89320_at) expression change upon IL-13 stimulation [3]: 2.1
- TBLR1 (87125_at) expression change upon IL-13 stimulation [3]: 4.4
- NIFK (89320_at) expression change upon IL-13 stimulation (HG-U95E, lot 2, Day 7): 3.4
- SLC1A5 (34759_at) expression change upon IL-13 stimulation (HG-U95E, lot 2, Day 7): 2.9
- SLC17A5 (88617_at) expression change upon IL-13 stimulation (HG-U95E, lot 2, Day 7): 2.3
